Experimental data from patent US6642392B1 (priority 1997, dated 2003).
Where two headings read alike, the source gives them in different places.

Experiments:
Assay type in all cases: in vivo
Phytophthora infestans = details: for Test D disease control rating (100 = 100% disease control, 0 = no disease control): rating relative to controls; for Test D disease control rating: tomato late blight, 100 = 100% disease control, 0 = no control, unmarked entries (standard test concentration)
Puccinia recondita = assay: Test B: wheat leaf rust, preventive spray on wheat seedlings; details: for Test B disease control rating (100 = 100% disease control, 0 = no disease control): rating relative to controls; for Test B disease control rating: wheat leaf rust, 100 = 100% disease control, 0 = no control, unmarked entries (standard test concentration)
Method in brief: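 Preventive test: P. recondita spores were applied one day after a run-off spray of compound suspension on wheat seedlings. Plants had 24 h at 20 °C in saturated air plus 6 days in a 20 °C growth chamber. Scoring is % disease control (100 = full) relative to controls.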

Pyricularia oryzae = details: for Test C disease control rating (100 = 100% disease control, 0 = no disease control): rating relative to controls; for Test C disease control rating: rice blast, 100 = 100% disease control, 0 = no control, unmarked entries (standard test concentration)
Botrytis cinerea = assay: Test E: gray mold, preventive spray on cucumber seedlings; details: for Test E disease control rating (100 = 100% disease control, 0 = no disease control): rating relative to controls; for Test E disease control rating: gray mold on cucumber, 100 = 100% disease control, 0 = no control, unmarked entries (standard test concentration)
Method in brief: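 Preventive spray on cucumber seedlings used a suspension (3% acetone, 250 ppm Trem 014), applied to run-off one day before inoculation with Botrytis cinerea spores. Plants were held 48 h at 20° C in saturated air, then 5 days at 20° C. Percent disease control was scored relative to untreated plants.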

[1] = tested on: Eiysiphe graminis f. sp. tritici; assay: Test A: wheat powdery mildew, preventive spray on wheat seedlings; details: for Test A disease control rating (100 = 100% disease control, 0 = no disease control): rating relative to controls; for Test A disease control rating: wheat powdery mildew, 100 = 100% disease control, 0 = no control relative to controls, unmarked entries (standard test concentration)
Method in brief: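 Preventive test: seedlings inoculated with powdery mildew spores one day after run-off spraying of a suspension. Ratings after 7 days in a 20° C growth chamber express percent disease control versus controls.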

[2] = tomato seedlings sprayed to run-off, inoculated the following day, unmarked compounds (standard test rate)
[3] = wheat seedlings sprayed to run-off, inoculated the following day, unmarked compounds (standard test rate)
[4] = rice seedlings sprayed to run-off, inoculated the following day, unmarked compounds (standard test rate)
[5] = cucumber seedlings sprayed to run-off, inoculated the following day, unmarked compounds (standard test rate)
[6] = tested at 40 ppm, wheat seedlings

| SMILES | Test D disease control rating (100 = 100% disease control, 0 = no disease control) (Phytophthora infestans; [2]) [%] | Test B disease control rating (100 = 100% disease control, 0 = no disease control) (Puccinia recondita; [3]) [%] | Test C disease control rating (100 = 100% disease control, 0 = no disease control) (Pyricularia oryzae; [4]) [%] | Test E disease control rating (100 = 100% disease control, 0 = no disease control) (Botrytis cinerea; [5]) [%] | Test A disease control rating (100 = 100% disease control, 0 = no disease control) [1, 3] [%] | Test D disease control rating (Phytophthora infestans) [%] | Test B disease control rating (Puccinia recondita) [%] | Test C disease control rating (Pyricularia oryzae) [%] | Test E disease control rating (Botrytis cinerea) [%] | Test A disease control rating [1] [%] | other results |
| --- | --- | --- | --- | --- | --- | --- | --- | --- | --- | --- | --- |
| CC(C=Cc1ccccc1C#N)NC(=O)C(C#N)C(C)(C)C (mixture of isomers) [compound 307] | 0 | 0 | 94 | 0 | 36 | – | – | – | – | – | – |
| CC(C=Cc1ccccc1F)NC(=O)C(C#N)C(C)(C)C (mixture of isomers) [compound 308] | 45 | 28 | 100 | 0 | 86 | – | – | – | – | – | – |
| CC(C=Cc1ccc(F)cc1F)NC(=O)C(C#N)C(C)(C)C (mixture of isomers) [compound 309] | 23 | 0 | 91 | 0 | 86 | – | – | – | – | – | – |
| CC(COc1ccccc1)NC(=O)C1(C)C(C)C1(Cl)Cl (mixture of isomers) [compound 310] | 0 | 25 | 53 | 18 | 84 | – | – | – | – | – | – |
| CC(COc1ccccc1)NC(=O)C1(C)CC1(Cl)Cl (mixture of isomers) [compound 311] | 0 | 0 | 0 | 0 | 84 | – | – | – | – | – | – |
| CC(COc1ccccc1C(F)(F)F)NC(=O)C1(C)CC1(Cl)Cl (mixture of isomers) [compound 312] | 82 | 0 | 0 | 0 | 0 | – | – | – | – | – | – |
| CC(COc1ccccc1Br)NC(=O)C1(C)CC1(Cl)Cl (mixture of isomers) [compound 313] | 32 | 0 | 26 | 47 | 0 | – | – | – | – | – | – |
| C=CCc1ccccc1OCC(C)NC(=O)C1(C)CC1(Cl)Cl (mixture of isomers) [compound 314] | 0 | 0 | 72 | 0 | 0 | – | – | – | – | – | – |
| CC(COc1ccccc1F)NC(=O)C1(C)CC1(Cl)Cl (mixture of isomers) [compound 315] | 16 | 99 | 51 | 0 | 60 | – | – | – | – | – | – |
| CCC1(C(=O)NC(C)COc2c(F)cccc2C#N)C(C)C1(Cl)Cl (mixture of isomers) [compound 316] | 0 | 0 | 53 | 0 | 0 | – | – | – | – | – | – |
| CCC1(C(=O)NC(C)COc2cccc(CF)c2)C(C)C1(Cl)Cl (mixture of isomers) [compound 317] | – | – | – | – | – | – | – | – | – | – | Test D disease control rating (100 = 100% disease control, 0 = no disease control) (Phytophthora infestans; tested at 40 ppm, tomato seedlings): 19%; Test B disease control rating (100 = 100% disease control, 0 = no disease control) (Puccinia recondita; [6]): 0%; Test C disease control rating (100 = 100% disease control, 0 = no disease control) (Pyricularia oryzae; tested at 40 ppm, rice seedlings): 85%; Test E disease control rating (100 = 100% disease control, 0 = no disease control) (Botrytis cinerea; tested at 40 ppm, cucumber seedlings): 0%; Test A disease control rating (100 = 100% disease control, 0 = no disease control) [1, 6]: 57% |
| CC(C)(C)C(C#N)C(=O)NCCCc1ccccc1 (racemic) [compound 54] | – | – | – | – | – | 0 | 11 | 32 | 16 | 34 | – |
| CC(C)(C)C(C#N)C(=O)NCCCn1c(C#N)cc(Cl)c1Cl (racemic) [compound 55] | – | – | – | – | – | 0 | 0 | 85 | 0 | 0 | – |
| CC(C)(C)C(C#N)C(=O)NC/C=C/c1ccccc1 (racemic) [compound 167] | – | – | – | – | – | 23 | 0 | 74 | 0 | 0 | – |
| CC(C)(C)C(C#N)C(=O)NC/C=C/c1ccccc1F (racemic) [compound 178] | – | – | – | – | – | 0 | 0 | 53 | 58 | 0 | – |
| CC(C)(C)C(C#N)C(=O)NC/C=C/c1ccccc1Cl (racemic) [compound 179] | – | – | – | – | – | 23 | 0 | 74 | 58 | 35 | – |
| CC(C)(C)C(C#N)C(=O)NC/C=C/c1cccc(Cl)c1 (racemic) [compound 180] | – | – | – | – | – | 76 | 0 | 74 | 0 | 61 | – |
| CC(C)(C)C(C#N)C(=O)NC/C=C/c1cccc(Br)c1 (racemic) [compound 272] | 63 | 0 | 53 | 0 | 76 | – | – | – | – | – | – |
| CC(C)(C)C(C#N)C(=O)NC/C=C/c1ccc(F)cc1F (racemic) [compound 273] | 23 | 0 | 53 | 0 | 86 | – | – | – | – | – | – |
| CC(C)(C)C(C#N)C(=O)NC/C=C/c1ccc(Cl)cc1Cl (racemic) [compound 274] | 23 | 28 | 74 | 58 | 61 | – | – | – | – | – | – |
| CC(COc1ccccc1)NC(=O)C(C#N)C(C)(C)C (single isomer, unassigned) [1b] | – | – | – | – | – | 0 | 11 | 74 | 0 | 34 | – |
| CC(COc1ccccc1)NC(=O)C(C#N)C(C)(C)C (single isomer, unassigned) [1c] | – | – | – | – | – | 16 | 85 | 73 | 0 | 60 | – |
| C[C@H](COc1ccccc1)NC(=O)C(C#N)C(C)(C)C (single isomer, unassigned) [1d] | – | – | – | – | – | 0 | 0 | 100 | 0 | 92 | – |
| C[C@H](COc1ccccc1)NC(=O)C(C#N)C(C)(C)C (single isomer, unassigned) [1e] | – | – | – | – | – | 80 | 0 | 100 | 47 | 92 | – |
| C[C@H](COc1ccccc1F)NC(=O)C(C#N)C(C)(C)C (single isomer, unassigned) [2b] | – | – | – | – | – | 0 | 0 | 100 | 0 | 0 | – |
